Data: US6790839B2, “Pharmaceutical administration of adenosine agonists” (Can-Fite Biopharma Ltd., priority 1999, dated 2004)
Entries after “also recorded” stand apart in the source; their conditions may differ.

Assays:
[1] = test system: bone marrow cells; test: Bone marrow cell proliferation in vitro ([3H]-thymidine incorporation assay); assay type: cell-based, C57BL/6J mice
Method: All drugs were purchased from Sigma Chemical Co. St. Louis, Mo. Adenosine was dissolved in water and kept as a stock solution in a concentration of 1 mM. For in vitro studies, dilutions in RPMI medium were carried out and final concentrations of 100, 50, 25, 10 and 5 μM were used. For in vivo studies, the stock solution was diluted with PBS to a concentration of […] and 0.5 ml was injected intraperitoneally to mice. 1,3-dipropyl-8-cyclopentylxanthine (DPCPX), an adenosine A1 receptor antagonist, 3,7-dimethyl-1-propargyl-xanthine (DMPX) an A2 receptor antagonist and N-cyclopentyladenosine (CPA), a selective A1 receptor agonist were added to a culture of proliferating bone marrow cells.
Bone marrow cells were obtained from the femur of C57BL/6J mice. Cells were disaggregated by passing through a 25G needle. [^3H]-Thymidine incorporation assay was used to evaluate the proliferative capability of the bone marrow cells.
Cells (3×10^4/well were incubated with RPMI medium, containing 10% fetal calf serum (FCS) (Biological Industries, Beit Haemek, Israel) and adenosine, adenosine antagonists or the agonist in 96 microtiter plates for 48 h. Cultures containing cells were suspended in RPMI medium and 10% FCS served as controls. In the last 6 hours of incubation, each well was pulsed with 1 μCi [^3H]-thymidine. Cells were harvested and the ^3[H]-thymidine uptake was determined in an LKB liquid scintillation counter (LKB, Piscataway, N.J., USA).

[2] = test system: white blood cells (WBC) and neutrophils; test: In vivo protection against myelotoxic effects of chemotherapy: blood cell count (Coulter counter, differential counts); design: species or system ICR mice; details: for Neutrophils (no.) / WBC (no.): blood, CPA 6 μg/kg per os 48 h and 72 h where given; for Neutrophils (no.): control level 1200; for WBC (no.): control level 6100
Method: Male ICR mice of the age of two months and weighing an average of 25 gr were employed. The mice were purchased from Harlan Laboratories, Jerusalem, […]. Protection of CPA-treated mice against myelotoxic effects of chemotherapy was evaluated. To this end, mice were provided with a chemotherapeutic drug, a combination of the drug with CPA or with a vehicle only. […] In particular, three test groups of mice were treated daily according to the following regimen: 1. Control group-vehicle only. 2. Chemotherapy-CYP (50 mg/kg body weight). 3. Chemotherapy+chemoprotection-CYP (50 mg/kg body weight)+CPA (6 μg/kg body weight, given through per os administration, 48 h and 72 h following chemotherapy treatment). To test the myeloprotective effect of CPA, blood samples were withdrawn from the above-mentioned groups 96 h, 120 h and 144 h following treatment with CYP, the following measurements were taken. Blood cell count-Blood cell count was carried out in a Coulter counter and differential cell counts were performed on smear preparations stained with May-Grunvald-Giemsa solution. Serum was separated from the whole blood and was kept at -70° C.

[3] = test system: G-CSF; test: In vivo serum G-CSF level by ELISA after chemotherapy; design: species or system ICR mice; details: for G-CSF (pgr/ml): serum, CPA 6 μg/kg per os 48 h and 72 h after chemotherapy where given, male ICR mice
Method: Male ICR mice of the age of two months and weighing an average of 25 gr were employed. The mice were purchased from Harlan Laboratories, Jerusalem, […]. Protection of CPA-treated mice against myelotoxic effects of chemotherapy was evaluated. To this end, mice were provided with a chemotherapeutic drug, a combination of the drug with CPA or with a vehicle only. […] In particular, three test groups of mice were treated daily according to the following regimen: 1. Control group-vehicle only. 2. Chemotherapy-CYP (50 mg/kg body weight). 3. Chemotherapy+chemoprotection-CYP (50 mg/kg body weight)+CPA (6 μg/kg body weight, given through per os administration, 48 h and 72 h following chemotherapy treatment). To test the myeloprotective effect of CPA, blood samples were withdrawn from the above-mentioned groups 96 h, 120 h and 144 h following treatment with CYP, the following measurements were taken. G-CSF level-granulocyte colony stimulating factor (G-CSF) level in the serum was determined by the use of a commercial ELISA kit (R&D Systems). G-CSF activity was expressed in pgr/ml according to a standard curve of recombinant G-CSF supplied by R&D Systems.

[4] = test system: bone marrow cells; details: adenosine 10-50 μM, concentration dependent; cited from earlier work

SMILES: C#CCn1c(=O)c2c(ncn2C)n(C)c1=O [DMPX, 3,7-dimethyl-1-propargyl-xanthine]
- effect on bone marrow cell proliferation ([1]; 0.1 μM, given without or with adenosine, FIG 1): induced a stimulatory effect

SMILES: OC[C@H]1O[C@@H](n2cnc3c(NC4CCCC4)ncnc32)[C@H](O)[C@@H]1O [CPA, N-cyclopentyladenosine]
- stimulation of bone marrow cell proliferation ([1]; concentrations of 0.1 and 0.01 μM, FIG 2): statistically significant stimulation
- in vivo protection against myelotoxicity of chemotherapeutic drugs ([2]; mice given CYP 50 mg/kg, CPA 6 μg/kg per os): provides in vivo protection against myelotoxicity; also recorded: acts as a chemoprotective agent
- level of G-CSF (summary in words) ([3]; combined treatment versus CYP only, CPA given orally to mice): induces in vivo G-CSF production

SMILES: CCCn1c(=O)c2[nH]c(C3CCCC3)nc2n(CCC)c1=O [DPCPX, 1,3-dipropyl-8-cyclopentylxanthine]
- effect on adenosine-stimulated bone marrow cell proliferation ([1]; 0.1 μM, with adenosine, FIG 1): significantly reversed the stimulatory effect of adenosine

SMILES: O=P1(N(CCCl)CCCl)NCCCO1 (stereo not shown) [CYP, cyclophosphamide]
- number of leukocytes and neutrophils (summary in words) ([2]; CYP only versus control, combined treatment versus CYP only): reduce significantly
- Neutrophils (no.) ([2]; 96 hrs after CYP 50 mg/kg): 377 no.
- WBC (no.) ([2]; 96 hrs after CYP 50 mg/kg): 2620 no.
- Neutrophils (no.) ([2]; 120 hrs after CYP 50 mg/kg): 490 no.
- WBC (no.) ([2]; 120 hrs after CYP 50 mg/kg): 2800 no.
- Neutrophils (no.) ([2]; 144 hrs after CYP 50 mg/kg): 1326 no.
- WBC (no.) ([2]; 144 hrs after CYP 50 mg/kg): 3900 no.
- G-CSF (pgr/ml) ([3]; 96 hrs after CYP 50 mg/kg): 511.30 pgr/ml
- G-CSF (pgr/ml) ([3]; 120 hrs after CYP 50 mg/kg): 333.03 pgr/ml
- G-CSF (pgr/ml) ([3]; 144 hrs after CYP 50 mg/kg): 871.14 pgr/ml

SMILES: Nc1ncnc2c1ncn2[C@@H]1O[C@H](CO)[C@@H](O)[C@H]1O [adenosine]
- 3[H]-thymidine incorporation of bone marrow cells [4]: stimulated
